Columns and labels:
Androgen receptor = target: T1, Androgen receptor (Homo sapiens, UniProt P10275); experiment: Binding affinity to androgen receptor
T1 sequence (P10275 whole entry): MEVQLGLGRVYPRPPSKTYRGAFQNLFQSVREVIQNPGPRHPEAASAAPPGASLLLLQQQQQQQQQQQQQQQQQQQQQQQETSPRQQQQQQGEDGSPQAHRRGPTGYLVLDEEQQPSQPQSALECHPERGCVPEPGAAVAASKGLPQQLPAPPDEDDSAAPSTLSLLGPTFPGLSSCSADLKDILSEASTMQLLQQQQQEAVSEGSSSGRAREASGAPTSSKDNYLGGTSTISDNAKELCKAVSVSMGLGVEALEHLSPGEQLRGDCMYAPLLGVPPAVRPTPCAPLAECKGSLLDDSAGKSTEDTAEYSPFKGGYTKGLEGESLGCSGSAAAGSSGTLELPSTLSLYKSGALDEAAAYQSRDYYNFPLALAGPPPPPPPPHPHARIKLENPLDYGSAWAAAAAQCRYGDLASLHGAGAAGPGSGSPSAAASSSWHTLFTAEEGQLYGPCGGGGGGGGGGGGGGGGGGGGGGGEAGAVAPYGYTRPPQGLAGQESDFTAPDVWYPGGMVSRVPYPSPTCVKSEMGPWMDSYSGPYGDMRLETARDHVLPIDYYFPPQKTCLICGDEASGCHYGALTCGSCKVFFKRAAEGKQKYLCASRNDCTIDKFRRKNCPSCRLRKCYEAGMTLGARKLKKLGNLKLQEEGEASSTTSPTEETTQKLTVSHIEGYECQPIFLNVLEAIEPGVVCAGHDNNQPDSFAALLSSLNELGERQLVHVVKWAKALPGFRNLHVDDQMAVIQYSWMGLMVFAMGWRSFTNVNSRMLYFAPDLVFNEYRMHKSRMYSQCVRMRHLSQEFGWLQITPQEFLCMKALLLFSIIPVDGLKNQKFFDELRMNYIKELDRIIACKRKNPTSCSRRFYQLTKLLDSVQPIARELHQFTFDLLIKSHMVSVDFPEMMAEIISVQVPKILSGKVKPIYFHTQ

Glucocorticoid receptor [1] = target: T2, Glucocorticoid receptor (Homo sapiens, UniProt P04150); experiment: Transactivation of GAL-4 tagged glucocorticoid receptor ligand binding domain expressed in human HeLa cells assessed as NP1 activation by luciferase reporter gene assay; format: cell-based
T2 sequence (P04150 whole entry): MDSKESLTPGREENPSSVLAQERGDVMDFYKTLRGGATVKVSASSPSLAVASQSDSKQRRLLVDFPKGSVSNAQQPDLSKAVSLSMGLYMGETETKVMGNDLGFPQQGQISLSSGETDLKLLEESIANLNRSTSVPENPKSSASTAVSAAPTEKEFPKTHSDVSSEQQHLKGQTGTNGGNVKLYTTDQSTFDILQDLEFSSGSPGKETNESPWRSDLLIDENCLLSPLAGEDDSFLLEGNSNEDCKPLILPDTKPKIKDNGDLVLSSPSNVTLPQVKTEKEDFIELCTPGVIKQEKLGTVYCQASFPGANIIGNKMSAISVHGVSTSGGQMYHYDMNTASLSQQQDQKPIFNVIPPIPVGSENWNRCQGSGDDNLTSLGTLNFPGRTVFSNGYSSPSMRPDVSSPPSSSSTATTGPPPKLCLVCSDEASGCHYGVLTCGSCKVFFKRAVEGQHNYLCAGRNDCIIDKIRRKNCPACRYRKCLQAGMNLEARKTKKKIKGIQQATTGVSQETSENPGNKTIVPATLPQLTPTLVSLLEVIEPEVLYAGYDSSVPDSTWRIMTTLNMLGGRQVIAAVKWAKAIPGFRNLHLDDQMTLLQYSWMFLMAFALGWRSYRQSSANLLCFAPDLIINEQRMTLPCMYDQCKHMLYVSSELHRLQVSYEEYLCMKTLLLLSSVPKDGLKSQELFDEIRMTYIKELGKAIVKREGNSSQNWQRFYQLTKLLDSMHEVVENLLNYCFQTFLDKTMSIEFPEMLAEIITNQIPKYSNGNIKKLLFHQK

[2] = Metabolic stability in human liver microsomes assessed as compound remaining at 3 uM after 10 mins; format: ADME, Microsome; details: read-out: Stability
Progesterone receptor = target: T3, Progesterone receptor (Homo sapiens, UniProt P06401); experiment: Binding affinity to progesterone receptor
T3 sequence (P06401 whole entry): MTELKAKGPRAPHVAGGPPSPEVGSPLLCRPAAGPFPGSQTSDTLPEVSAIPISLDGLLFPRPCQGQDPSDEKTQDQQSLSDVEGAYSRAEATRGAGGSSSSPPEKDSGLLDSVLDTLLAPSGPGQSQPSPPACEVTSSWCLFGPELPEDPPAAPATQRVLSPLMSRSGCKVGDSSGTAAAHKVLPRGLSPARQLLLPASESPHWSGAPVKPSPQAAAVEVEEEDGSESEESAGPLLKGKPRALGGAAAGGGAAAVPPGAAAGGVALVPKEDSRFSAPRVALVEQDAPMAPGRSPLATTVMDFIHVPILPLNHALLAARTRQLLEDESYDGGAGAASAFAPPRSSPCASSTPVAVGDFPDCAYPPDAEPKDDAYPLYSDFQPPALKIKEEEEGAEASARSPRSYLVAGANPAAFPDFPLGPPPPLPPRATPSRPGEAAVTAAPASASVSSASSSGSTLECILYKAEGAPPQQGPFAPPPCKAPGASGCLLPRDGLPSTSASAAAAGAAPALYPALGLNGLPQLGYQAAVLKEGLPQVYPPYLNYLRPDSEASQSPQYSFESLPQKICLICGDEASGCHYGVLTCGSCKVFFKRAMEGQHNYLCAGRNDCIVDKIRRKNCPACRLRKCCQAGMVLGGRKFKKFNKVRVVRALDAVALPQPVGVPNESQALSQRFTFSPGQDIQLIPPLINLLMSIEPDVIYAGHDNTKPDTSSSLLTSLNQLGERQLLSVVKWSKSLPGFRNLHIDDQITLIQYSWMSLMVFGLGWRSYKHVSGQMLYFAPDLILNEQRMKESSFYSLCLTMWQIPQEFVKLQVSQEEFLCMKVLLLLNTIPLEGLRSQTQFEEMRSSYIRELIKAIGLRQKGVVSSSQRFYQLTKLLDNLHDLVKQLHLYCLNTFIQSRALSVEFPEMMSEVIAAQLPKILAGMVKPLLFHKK

Glucocorticoid receptor [3] = target: T2, Glucocorticoid receptor; experiment: Displacement of GS-red from human glucocorticoid receptor by fluorescent polarization assay
[4] = Metabolic stability in mouse liver microsomes assessed as compound remaining at 3 uM after 10 mins; format: ADME, Microsome; details: read-out: Stability
Glucocorticoid receptor [5] = target: T2, Glucocorticoid receptor; experiment: Transrepression activity at glucocorticoid receptor expressed in human A549 cells assessed as inhibition of PMA-induced AP1 activity after 6 hrs by luciferase reporter gene assay; format: cell-based
Glucocorticoid receptor [6] = target: T2, Glucocorticoid receptor; experiment: Transrepression activity at glucocorticoid receptor expressed in human A549 cells assessed as inhibition of IL-1-beta-induced NF-kappaB dependent E-selection promoter activation after 6 hrs by luciferase reporter gene based ELAM assay; format: cell-based
[7] = Metabolic stability in rat liver microsomes assessed as compound remaining at 3 uM after 10 mins; format: ADME, Microsome; details: read-out: Stability

Row | IC50 (Androgen receptor) | EC50 (Glucocorticoid receptor [1]) | remaining at 10 min, 3 µM [2] | Ki (Progesterone receptor) | Ki (Glucocorticoid receptor [3]) | remaining at 10 min, 3 µM [4] | EC50 (Glucocorticoid receptor [5]) | EC50 (Glucocorticoid receptor [6]) | remaining at 10 min, 3 µM [7] | SMILES
1 | > 4000 nM | 697 nM | 56% | 238 nM | 2 nM | 73% | 7.5 nM | 19 nM | 51% | C[C@]12Cn3cnc(-c4ccc(F)cc4)c3C=C1CCC[C@@H]2[C@](C)(O)c1ccc(Cl)cc1
2 | > 4000 nM | 380 nM | 3% | 132 nM | 2 nM | 21% | 29 nM | 30 nM | 2% | Cc1ccsc1[C@@](C)(O)[C@H]1CCCC2=Cc3c(-c4ccc(F)cc4)ncn3C[C@@]21C

Row | SMILES | IC50 (Androgen receptor) | EC50 (Glucocorticoid receptor [1]) | remaining at 10 min, 3 µM [2] | Ki (Progesterone receptor) | Ki (Glucocorticoid receptor [3]) | remaining at 10 min, 3 µM [4] | EC50 (Glucocorticoid receptor [5]) | EC50 (Glucocorticoid receptor [6]) | remaining at 10 min, 3 µM [7]
3 | C=CC[C@@](C)(O)[C@H]1CCCC2=Cc3c(-c4ccc(F)cc4)ncn3C[C@@]21C | > 4000 nM | > 5000 nM |  | 1810 nM | 4.3 nM |  | 57 nM | 79 nM | 

— ChEMBL document CHEMBL1156812, “Novel synthesis of the hexahydroimidazo[1,5b]isoquinoline scaffold: application to the synthesis of glucocorticoid receptor modulators” (J Med Chem, 2010)
